Data taken from patent US20230124862A1, “BISMUTH THIOL COMPOUNDS AND COMPOSITIONS AND METHODS OF TREATING MICROBIAL CO-INFECTIONS” (Microbion Corporation, priority 2020, published 2023).
Values joined by “and” are separate entries in the source; they are usually repeats but may differ in a detail not shown here. Equal values may be shown once. Read-outs that look alike come from different tables or passages of the source.

Format: in vivo, beagle dogs
Procedure: Once adequately conditioned to the restraint device and face-masks, the animals are individually exposed to the test article aerosols. Animals receive a single face-mask inhalation exposure in a ramp study design to test article aerosols for up to 60 min. Animal observations during and post exposure determine the tolerance of inhaled BisEDT aerosols.
Blood Collections and Bioanalytical Analysis: Blood are collected for pharmacokinetic (PK) analysis prior to exposure, then at 4 hr (±5 min) post exposure, and again on Day 1, Day 2, Day 7 (pre- and 4 hr (±5 min)-post exposure), Day 8, Day 9, Day 10, Day 11, Day 12, Day 13, and Day 14. A total of 0.25 mL is collected at each timepoint. No PK blood is collected from the vehicle control (Group 1) animals; only animals exposed to BisEDT have blood collected for PK analysis. Collected samples are flash frozen without processing for shipment to Medpace for bioanalytical analysis. Additional blood is collected from all animals in all groups for hematology (1 mL) and clinical chemistry (1 mL) at baseline, Day 7 (pre-exposure), and again at euthanasia. Blood (2-2 mL) is collected from all animals at necropsy for coagulation analysis (d-Dimer, fibrinogen, PT, and PTT).
For clinical chemistry analyses, whole blood (1 mL) is placed into serum separator or clot tube and […] by centrifugation at a minimum of 1300 g at 2 to 8° C. for 10 (±1) min. Plasma samples are stored at −70 to −90° C. until analysis.
Clinical chemistry samples are analyzed on a Hitachi Modular Analytics Clinical Chemistry System (Roche Diagnostics, Indianapolis, Ind.).

C1C[S][Bi]([S]CC[S][Bi]2[S]CC[S]2)[S]1 [BisEDT, Bismuth-1,2-ethanedithiol]
AGR (dog 2001 Male): 1.9 and 2.0 and 1.8
ALB (dog 2001 Male): 3.3 g/dL and 3.4 g/dL and 3.5 g/dL
ALPK (dog 2001 Male): 130 IU/L and 140 IU/L and 128 IU/L
ALT (dog 2001 Male): 22 IU/L
AST (dog 2001 Male): 48 IU/L and 36 IU/L
BUN (dog 2001 Male): 12 mg/dL and 16 mg/dL and 15 mg/dL
CA2 (dog 2001 Male): 10.9 mg/dL and 10.8 mg/dL and 11.0 mg/dL
CHOL (dog 2001 Male): 168 mg/dL and 167 mg/dL and 152 mg/dL
CREA (dog 2001 Male): 0.7 mg/dL and 0.6 mg/dL
Cl (dog 2001 Male): 109 mmo/L and 113 mmo/L and 108 mmo/L
GGT (dog 2001 Male): 3 IU/L
GLOB (dog 2001 Male): 1.7 g/dL and 2.0 g/dL
GLUC (dog 2001 Male): 91 mg/dL and 97 mg/dL and 102 mg/dL
K (dog 2001 Male): 4.5 mmo/L and 4.9 mmo/L and 4.7 mmo/L
Na (dog 2001 Male): 149 mmo/L and 147 mmo/L
TBIL (dog 2001 Male): 0.15 mg/dL
TP (dog 2001 Male): 5.0 g/dL and 5.1 g/dL and 5.5 g/dL
TRIG (dog 2001 Male): 66 mg/dL and 80 mg/dL and 63 mg/dL
AGR (dog 2002 Female): 1.7 and 2.3
ALB (dog 2002 Female): 3.3 g/dL and 3.6 g/dL and 3.7 g/dL
ALT (dog 2002 Female): 18 IU/L and 29 IU/L and 27 IU/L
AST (dog 2002 Female): 35 IU/L and 41 IU/L and 38 IU/L
BUN (dog 2002 Female): 13 mg/dL and 14 mg/dL
CA2 (dog 2002 Female): 10.9 mg/dL and 10.8 mg/dL and 10.6 mg/dL
CHOL (dog 2002 Female): 138 mg/dL and 123 mg/dL and 114 mg/dL
CREA (dog 2002 Female): 0.6 mg/dL
Cl (dog 2002 Female): 110 mmo/L and 114 mmo/L and 113 mmo/L
GGT (dog 2002 Female): 3 IU/L
GLOB (dog 2002 Female): 1.9 g/dL and 1.6 g/dL
GLUC (dog 2002 Female): 95 mg/dL and 98 mg/dL and 89 mg/dL
K (dog 2002 Female): 5.0 mmo/L and 5.2 mmo/L and 4.6 mmo/L
Na (dog 2002 Female): 149 mmo/L and 147 mmo/L and 148 mmo/L
TBIL (dog 2002 Female): 0.15 mg/dL
TP (dog 2002 Female): 5.2 g/dL and 5.3 g/dL
TRIG (dog 2002 Female): 38 mg/dL and 39 mg/dL and 31 mg/dL
AGR (dog 3001 Male): 2.0 and 2.1
ALB (dog 3001 Male): 3.2 g/dL and 3.4 g/dL
ALPK (dog 3001 Male): 142 IU/L and 135 IU/L and 121 IU/L
ALT (dog 3001 Male): 26 IU/L and 24 IU/L and 22 IU/L
AST (dog 3001 Male): 30 IU/L and 32 IU/L and 33 IU/L
CA2 (dog 3001 Male): 10.7 mg/dL and 10.5 mg/dL and 10.0 mg/dL
CHOL (dog 3001 Male): 100 mg/dL and 111 mg/dL
CREA (dog 3001 Male): 0.6 mg/dL and 0.7 mg/dL and 1.0 mg/dL
Cl (dog 3001 Male): 111 mmo/L and 110 mmo/L and 109 mmo/L
GGT (dog 3001 Male): 3 IU/L
GLOB (dog 3001 Male): 1.6 g/dL and 1.7 g/dL
GLUC (dog 3001 Male): 100 mg/dL and 88 mg/dL and 51 mg/dL
K (dog 3001 Male): 4.7 mmo/L and 5.1 mmo/L and 5.8 mmo/L
Na (dog 3001 Male): 146 mmo/L and 148 mmo/L
TBIL (dog 3001 Male): 0.15 mg/dL
TP (dog 3001 Male): 4.8 g/dL and 5.1 g/dL and 5.0 g/dL
TRIG (dog 3001 Male): 26 mg/dL and 34 mg/dL and 52 mg/dL
AGR (dog 3002 Female): 2.3 and 1.8 and 2.6
ALB (dog 3002 Female): 3.5 g/dL and 3.7 g/dL
ALPK (dog 3002 Female): 164 IU/L and 90 IU/L and 176 IU/L
ALT (dog 3002 Female): 28 IU/L and 20 IU/L
AST (dog 3002 Female): 36 IU/L and 28 IU/L and 30 IU/L
CA2 (dog 3002 Female): 11.2 mg/dL and 10.8 mg/dL and 10.4 mg/dL
CHOL (dog 3002 Female): 126 mg/dL and 175 mg/dL and 141 mg/dL
CREA (dog 3002 Female): 0.6 mg/dL and 0.5 mg/dL and 0.9 mg/dL
Cl (dog 3002 Female): 112 mmo/L and 109 mmo/L and 110 mmo/L
GGT (dog 3002 Female): 3 IU/L
GLOB (dog 3002 Female): 1.5 g/dL and 2.0 g/dL and 1.4 g/dL
GLUC (dog 3002 Female): 112 mg/dL and 90 mg/dL and 65 mg/dL
K (dog 3002 Female): 5.5 mmo/L and 5.3 mmo/L and 5.9 mmo/L
Na (dog 3002 Female): 149 mmo/L and 145 mmo/L
TBIL (dog 3002 Female): 0.15 mg/dL
TP (dog 3002 Female): 5.0 g/dL and 5.5 g/dL and 5.1 g/dL
TRIG (dog 3002 Female): 34 mg/dL and 43 mg/dL and 58 mg/dL
AGR (dog 4001 Male): 2.3 and 1.8 and 1.9
ALB (dog 4001 Male): 3.6 g/dL and 3.4 g/dL and 3.2 g/dL
ALPK (dog 4001 Male): 103 IU/L and 114 IU/L and 119 IU/L
ALT (dog 4001 Male): 27 IU/L and 28 IU/L
AST (dog 4001 Male): 32 IU/L and 39 IU/L and 34 IU/L
BUN (dog 4001 Male): 11 mg/dL and 12 mg/dL
CA2 (dog 4001 Male): 10.8 mg/dL and 10.6 mg/dL and 10.4 mg/dL
CHOL (dog 4001 Male): 153 mg/dL and 147 mg/dL and 111 mg/dL
CREA (dog 4001 Male): 0.7 mg/dL and 0.6 mg/dL
Cl (dog 4001 Male): 120 mmo/L and 116 mmo/L and 113 mmo/L
GGT (dog 4001 Male): 3 IU/L
GLOB (dog 4001 Male): 1.6 g/dL and 1.9 g/dL and 1.7 g/dL
GLUC (dog 4001 Male): 102 mg/dL and 82 mg/dL and 86 mg/dL
K (dog 4001 Male): 4.7 mmo/L and 4.8 mmo/L
Na (dog 4001 Male): 152 mmo/L and 147 mmo/L and 145 mmo/L
TBIL (dog 4001 Male): 0.15 mg/dL
TP (dog 4001 Male): 5.2 g/dL and 5.3 g/dL and 4.9 g/dL
TRIG (dog 4001 Male): 49 mg/dL and 46 mg/dL and 40 mg/dL
AGR (dog 4002 Female): 1.7 and 1.8
ALB (dog 4002 Female): 3.5 g/dL
ALPK (dog 4002 Female): 147 IU/L and 103 IU/L
ALT (dog 4002 Female): 20 IU/L and 21 IU/L
AST (dog 4002 Female): 32 IU/L and 35 IU/L
BUN (dog 4002 Female): 13 mg/dL and 12 mg/dL
CA2 (dog 4002 Female): 11.1 mg/dL and 11.2 mg/dL
CHOL (dog 4002 Female): 182 mg/dL and 169 mg/dL
CREA (dog 4002 Female): 0.6 mg/dL and 0.5 mg/dL
Cl (dog 4002 Female): 116 mmo/L and 112 mmo/L
